# In US20030109503A1, “Pharmaceutical formulations comprising clavulanic acid alone or in combination with other beta-lactam antibiotics” (SmithKline Beecham p.l.c., priority 1995, published 2003):
# Like-named read-outs stand apart in the source and are kept apart here.
# What was measured:
# [1] = system: β-lactamase producing strains of M. catarrhalis; assay: MIC in agar, serial dilution, alone or with constant clavulanic acid; type: cell-based, Moraxella catarrhalis
# Description: (§1) Determinations of the minimum inhibitory concentration (MIC) were performed in agar using serial dilutions of the test compounds alone or in the presence of constant concentrations of clavulanic acid (2 or 4 μg/ml). The agar used was Mueller Hinton (BBL) supplemented with 5% lysed horse blood in the case of H. influenzae and M. catarrhalis, except for B. fragilis where Wilkins-Chalgren agar (Oxoid) was used. A multipoint inoculator was used to drop 1 μl of undiluted culture of S. aureus, 10-fold dilutions of B. fragilis, H. influenzae and M. catarrhalis and 100-fold dilutions of E. coli and K. pneumoniae onto the surface of the agar, to give an inoculum of approximately 10^4 to 10^5 cfu/spot.
# B. fragilis = assay: MIC in agar (Wilkins-Chalgren), serial dilution, alone or with constant clavulanic acid; type: cell-based, Bacteroides fragilis
# Description: as §1
# [2] = system: plasmid mediated β-lactamase producing strains of E. coli; assay: MIC in agar, serial dilution, alone or with constant clavulanic acid; type: cell-based, Escherichia coli
# Description: as §1
# [3] = system: β-lactamase producing strains of S. aureus; assay: as above; type: cell-based
# Description: as §1
# [4] = system: β-lactamase producing strains of H. influenzae; assay: as above; type: cell-based
# Description: as §1
# [5] = system: plasmid mediated β-lactamase producing strains of K. pneumoniae; assay: as above; type: cell-based, Klebsiella pneumoniae
# Description: as §1
# [6] = clavulanic acid at 2 or 4 μg/ml
# [7] = Gmean MIC values reduced considerably
compound,measurement,setting,value
N[C@@H](C(=O)N[C@@H]1C(=O)N2C(C(=O)O)=C(Cl)CS[C@H]12)c1ccccc1 [cefaclor],MIC range,"[1]; M.catarrhalis (14 strains), CA2/CA4 = constant 2 or 4 μg/ml clavulanic acid",1 to 8 µg/mL
same,MIC90,"[1]; Moraxella catarrhalis, M.catarrhalis (14 strains), CA2/CA4 = constant 2 or 4 μg/ml clavulanic acid",8 µg/mL
same,MIC,"[1]; Moraxella catarrhalis, M.catarrhalis (14 strains), CA2/CA4 = constant 2 or 4 μg/ml clavulanic acid, read-out: Gmean (geometric mean MIC)",4.88 µg/mL
same,MIC,"[1]; Moraxella catarrhalis, M.catarrhalis (14 strains), CA2/CA4 = constant 2 or 4 μg/ml clavulanic acid, read-out: MIC75",8 µg/mL
same,MIC range,"B. fragilis; B.fragilis (19 strains), CA2/CA4 = constant 2 or 4 μg/ml clavulanic acid",64 to 512 µg/mL
same,MIC90,"B. fragilis; Bacteroides fragilis, B.fragilis (19 strains), CA2/CA4 = constant 2 or 4 μg/ml clavulanic acid",128 µg/mL
same,MIC,"B. fragilis; Bacteroides fragilis, B.fragilis (19 strains), CA2/CA4 = constant 2 or 4 μg/ml clavulanic acid, read-out: Gmean (geometric mean MIC)",151 µg/mL
same,MIC,"B. fragilis; Bacteroides fragilis, B.fragilis (19 strains), CA2/CA4 = constant 2 or 4 μg/ml clavulanic acid, read-out: MIC75",4 µg/mL
same,MIC range,"[2]; E.coli R+ (11 strains), CA2/CA4 = constant 2 or 4 μg/ml clavulanic acid",1 to 32 µg/mL
same,MIC90,[2]; Escherichia coli,32 µg/mL
same,MIC,"[2]; Escherichia coli, read-out: Gmean (geometric mean MIC)",4.32 µg/mL
same,MIC,"[2]; Escherichia coli, read-out: MIC75",4 µg/mL
same,MIC range,"[3]; S.aureus P+ (10 strains), CA2/CA4 = constant 2 or 4 μg/ml clavulanic acid",1 to 256 µg/mL
same,MIC90,"[3]; Staphylococcus aureus, S.aureus P+ (10 strains), CA2/CA4 = constant 2 or 4 μg/ml clavulanic acid",64 µg/mL
same,MIC,"[3]; Staphylococcus aureus, S.aureus P+ (10 strains), CA2/CA4 = constant 2 or 4 μg/ml clavulanic acid, read-out: Gmean (geometric mean MIC)",12.4 µg/mL
same,MIC,"[3]; Staphylococcus aureus, S.aureus P+ (10 strains), CA2/CA4 = constant 2 or 4 μg/ml clavulanic acid, read-out: MIC75",32 µg/mL
same,MIC,"[3]; Staphylococcus aureus, in the presence of 2 μg/ml clavulanic acid, read-out: geometric mean (Gmean) MIC of cefaclor",1.13 µg/mL
same,MIC,"[3]; Staphylococcus aureus, in the presence of 4 μg/ml clavulanic acid, read-out: geometric mean (Gmean) MIC of cefaclor",0.73 µg/mL
same,MIC range,"[4]; H.influenzae (15 strains), CA2/CA4 = constant 2 or 4 μg/ml clavulanic acid",2 to 16 µg/mL
same,MIC90,"[4]; Haemophilus influenzae, H.influenzae (15 strains), CA2/CA4 = constant 2 or 4 μg/ml clavulanic acid",16 µg/mL
same,MIC,"[4]; Haemophilus influenzae, H.influenzae (15 strains), CA2/CA4 = constant 2 or 4 μg/ml clavulanic acid, read-out: Gmean (geometric mean MIC)",7.64 µg/mL
same,MIC,"[4]; Haemophilus influenzae, H.influenzae (15 strains), CA2/CA4 = constant 2 or 4 μg/ml clavulanic acid, read-out: MIC75",16 µg/mL
same,MIC90,[5]; Klebsiella pneumoniae,256 µg/mL
same,MIC,"[5]; Klebsiella pneumoniae, read-out: Gmean (geometric mean MIC)",17.7 µg/mL
same,MIC,"[5]; Klebsiella pneumoniae, read-out: MIC75",256 µg/mL
O=C(O)[C@H]1/C(=C/CO)O[C@@H]2CC(=O)N21 [clavulanic acid],effect of clavulanic acid on the activity of cefaclor,[1]; [6],improved the activity of cefaclor
same,effect of clavulanic acid on the activity of cefaclor,B. fragilis; [6],improved the activity of cefaclor
same,effect of clavulanic acid on the activity of cefaclor,[2]; [7],improved
same,effect of clavulanic acid on the activity of cefaclor,[3]; 2 and 4 μg/ml clavulanic acid,markedly improved the activity of cefaclor
same,effect of clavulanic acid on the activity of cefaclor,[4]; [6],improved the activity of cefaclor
same,effect of clavulanic acid on the activity of cefaclor,[5]; [7],improved
